Test results reported in ChEMBL document CHEMBL1201862, “PubChem BioAssay data set” (2004).
Calls of active or inactive are those of the source.

Assays:
[1] = viability of uninfected HEp-2 cells – cell-based, HTS, cytotoxicity control for RSV inhibitor project, dose response (AID 2410); type: functional; settings: human respiratory syncytial virus
[2] = target: Luciferin 4-monooxygenase (Photinus pyralis, UniProt P08659); assay: inhibition of purified Photinus pyralis luciferase – biochemical, luminescence, dose response (AID 1891)
[3] = Luminescence Cell-Based Dose Confirmation HTS to Identify Inhibitors of Platelet Dense Granule Release. [Related pubchem assays: 1663 (Primary HTS), 1678 (Summary of Project)]; type: functional
[4] = target: T1, Heat shock factor protein 1 (Mus musculus, UniProt P38532); assay: enhancement of HSF1-driven luciferase signal – cell-based, NIH3T3, luminescence, dose retest, confirmation (AID 435004); type: functional;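 also: stress induced by proteasome inhibitor MG132 added 30 min after compound; luciferase reporter driven by HSF1 response element in NIH3T3 cells; actives raise luminescence as potentiators of the MG132 stress response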
T1 sequence (P38532 whole entry): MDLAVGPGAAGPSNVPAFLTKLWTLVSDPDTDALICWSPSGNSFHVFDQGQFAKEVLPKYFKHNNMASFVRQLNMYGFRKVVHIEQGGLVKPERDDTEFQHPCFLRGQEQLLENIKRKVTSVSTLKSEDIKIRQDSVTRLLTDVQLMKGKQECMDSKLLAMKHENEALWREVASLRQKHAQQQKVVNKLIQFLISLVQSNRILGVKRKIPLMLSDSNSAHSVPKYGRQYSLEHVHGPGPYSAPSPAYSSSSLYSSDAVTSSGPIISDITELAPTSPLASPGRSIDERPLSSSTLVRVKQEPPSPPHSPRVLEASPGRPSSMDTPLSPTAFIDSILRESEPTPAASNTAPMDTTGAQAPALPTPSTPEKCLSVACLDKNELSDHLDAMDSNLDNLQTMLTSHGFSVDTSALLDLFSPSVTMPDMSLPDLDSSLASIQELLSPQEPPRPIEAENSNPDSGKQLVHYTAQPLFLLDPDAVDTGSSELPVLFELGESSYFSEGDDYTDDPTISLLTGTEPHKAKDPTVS

[5] = cells; type: functional
[6] = cells; type: functional, cell-based
[7] = cells; type: functional, cell-based; remark: listed apart in the source
[8] = Luminescence Cell-Based Dose Retest to Confirm Inhibitors of Cancer Stem Cells. [Related pubchem assays (depositor defined):AID2717, AID2721]; type: functional; settings: Homo sapiens
[9] = NIH-3T3 fibroblast cytotoxicity, dose response, cytotoxicity control, cell-based, fluorescence, Alamar Blue, secondary assay (AID 2327); type: functional;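 also: NIH-3T3 mouse fibroblasts cultured with fluconazole at 8 µg/mL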
[10] = test system: INS1; assay: INS-1E survival protection against cytokine death – cell-based, luminescence, retest, dose response (AID 449756); type: functional; settings: Rattus norvegicus;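 also: cell death triggered by IL-1 beta plus TNF-alpha plus IFN-gamma mixture; protective hits raise ATP signal compared with cytokine alone wells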
[11] = blockers of HIV-1 ZM109 envelope-driven cell-cell fusion – HeLa effector, CEM target cells, luciferase, cherry-pick, dose response (AID 652058); type: functional, cell-based;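 also: luciferase signal from HIV-1 Env mediated cell-cell fusion of effector and target cells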
[12] = HIV-1 AD8 envelope cell-cell fusion blockers – cherry-pick, dose response (AID 652062); type: functional, cell-based;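 also: luciferase signal from cell-cell fusion driven by HIV-1 clade B AD8 Env; potency is for inhibitors of fusion seen as a drop in luminescence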
[13] = target: Paired box protein Pax-8 (Homo sapiens, UniProt Q06710); assay: PAX8 transcriptional activity inhibition in RMG-I – RMG-I cells, luciferase, cherry-pick, dose response (AID 687027); type: functional, cell-based;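 also: luciferase reporter driven by Pax8 target thyroperoxidase promoter measured by SteadyGlo luminescence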
[14] = blockers of HIV-1 envelope-mediated cell-cell fusion – cherry-pick, dose response (AID 652057); type: functional, cell-based
[15] = Trypanosoma cruzi growth suppression in host cells – NIH3T3 host cells, beta-gal luminescence, confirmation (AID 2044); type: functional, cell-based;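 also: intracellular parasites grown in NIH/3T3 mouse fibroblasts as host cells; luminescent beta-galactosidase reporter signal from transgenic T. cruzi replicating inside host cells; inhibitors lower the luminescence signal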
[16] = NIH3T3 cell viability loss – ATP luminescence, mouse fibroblasts, counter-screen, dose response (AID 2010); type: functional, cell-based;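 also: cells exposed to compound for about 90 hours before reading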
[17] = target: T2, Cytochrome P450 1A2 (Homo sapiens, UniProt P05177);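 also: PubChem cytochrome P450 panel assay, CYP1A2 panel member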
T2 sequence (P05177 whole entry): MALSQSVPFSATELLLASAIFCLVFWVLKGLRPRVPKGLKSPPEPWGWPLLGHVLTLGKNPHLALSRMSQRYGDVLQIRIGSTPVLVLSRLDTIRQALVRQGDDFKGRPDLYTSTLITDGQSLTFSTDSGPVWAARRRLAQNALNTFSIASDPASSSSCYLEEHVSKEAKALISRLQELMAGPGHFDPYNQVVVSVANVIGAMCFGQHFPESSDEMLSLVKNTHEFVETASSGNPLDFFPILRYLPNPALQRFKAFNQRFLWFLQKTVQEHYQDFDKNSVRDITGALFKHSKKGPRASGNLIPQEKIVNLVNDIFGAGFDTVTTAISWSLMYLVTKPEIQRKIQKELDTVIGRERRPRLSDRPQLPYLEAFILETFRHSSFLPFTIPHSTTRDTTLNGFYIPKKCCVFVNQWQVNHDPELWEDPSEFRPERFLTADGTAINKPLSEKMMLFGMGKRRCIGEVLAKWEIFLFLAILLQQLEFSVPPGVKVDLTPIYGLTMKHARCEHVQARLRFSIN

Chain of Luciferin 4-monooxygenase (P08659 whole entry): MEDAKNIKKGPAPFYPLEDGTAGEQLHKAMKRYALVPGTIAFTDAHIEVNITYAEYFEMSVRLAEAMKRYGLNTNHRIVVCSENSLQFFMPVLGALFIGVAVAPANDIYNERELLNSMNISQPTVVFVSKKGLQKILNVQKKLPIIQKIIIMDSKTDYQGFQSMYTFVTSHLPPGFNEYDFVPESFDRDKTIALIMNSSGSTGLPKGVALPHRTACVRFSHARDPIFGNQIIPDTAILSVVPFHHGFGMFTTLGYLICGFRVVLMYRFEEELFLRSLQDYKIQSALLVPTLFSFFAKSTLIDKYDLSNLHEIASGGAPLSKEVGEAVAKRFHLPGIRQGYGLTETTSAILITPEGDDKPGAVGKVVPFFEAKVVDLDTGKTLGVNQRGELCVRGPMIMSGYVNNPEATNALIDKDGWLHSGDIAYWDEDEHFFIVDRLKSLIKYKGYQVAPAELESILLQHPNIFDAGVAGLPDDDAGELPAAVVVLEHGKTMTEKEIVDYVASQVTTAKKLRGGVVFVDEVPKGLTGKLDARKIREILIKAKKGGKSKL
Chain of Paired box protein Pax-8 (Q06710 whole entry, the tested form may be a part): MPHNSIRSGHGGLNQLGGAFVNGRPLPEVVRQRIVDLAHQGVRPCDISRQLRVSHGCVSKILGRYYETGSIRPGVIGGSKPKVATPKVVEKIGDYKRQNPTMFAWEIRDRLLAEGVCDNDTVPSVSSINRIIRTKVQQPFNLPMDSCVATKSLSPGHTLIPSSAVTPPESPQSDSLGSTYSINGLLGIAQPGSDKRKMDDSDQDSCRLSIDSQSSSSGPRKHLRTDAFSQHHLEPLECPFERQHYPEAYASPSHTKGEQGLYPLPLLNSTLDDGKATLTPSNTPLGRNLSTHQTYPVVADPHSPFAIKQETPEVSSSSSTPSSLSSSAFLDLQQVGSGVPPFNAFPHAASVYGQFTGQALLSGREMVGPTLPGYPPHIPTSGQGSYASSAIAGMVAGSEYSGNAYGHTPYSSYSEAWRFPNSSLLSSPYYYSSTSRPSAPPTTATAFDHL

For `CCOC(=O)c1c(C)oc2ccc(NS(=O)(=O)c3ccc4c5c(cccc35)C(=O)N4)cc12`, which CC50 [1] is on record?
The CC50 was 7.08 µM (active).

With `O=C(Nc1cccc(Cl)c1)Nc1ccccc1C(=O)O` as the compound, how does the EC50 [2] read?
Its EC50 is 0.654 µM (active).

What about the EC50 [3] of the same compound?
The EC50 was 11.4 µM (active).

With `O=C(CSC1CS(=O)(=O)c2cc([N+](=O)[O-])ccc21)NNC(=O)c1ccc(Cl)cc1` (stereo not drawn) as the compound, how does the EC50 [4] read?
The EC50 was > 260 µM (inactive).

With `CCOC(=O)COc1c(-c2ccc(OC)cc2)oc2ccccc2c1=O` as the compound, how does the IC50 [5] read?
Its IC50 is 5.55 µM (active).

With `O=C(O)c1ccccc1OC(C(=O)Nc1cc(Cl)cc(Cl)c1)c1ccccc1` (stereo not drawn) as the compound, how does the EC50 [4] read?
The EC50 was > 260 µM (inactive).

Which CC50 [1] does the source give for `O=C(NN1C(=O)NC2(CCCCC2)C1=O)c1ccc(-c2ccc(Cl)cc2)o1` here?
Its CC50 is 22.3 µM (active).

For `CCOC(=O)c1c(S(=O)(=O)NCc2ccc(C)o2)c(C)n(C)c1C`, which EC50 [6] is on record?
Its EC50 is > 350 µM (not active).

And the EC50 [7]?
The EC50 was > 350 µM (not active).

With `COc1ccc(C(=O)NNc2ccccc2)cc1OC` as the compound, how does the AC50 [8] read?
The AC50 was 0.825 µM (active).

And the EC50 [9]?
The EC50 was 7.89 µM (active).

For `CCc1ccc(-n2c(S)nnc2Cc2ccccc2)cc1`, which EC50 [2] is on record?
The EC50 was > 112 µM (not active).

What about the EC50 [3] of the same compound?
The EC50 was > 112 µM (not active).

With `O=C(CSC1=N/C(=C/c2ccc(Cl)c(Cl)c2)C(=O)N1c1ccccc1F)NC1CC1` as the compound, how does the CC50 [1] read?
Its CC50 is 24 µM (active).

Which AC50 [8] does the source give for `Cc1cc(SCC(=O)c2cccs2)n2nc(C)c(-c3ccc(Cl)cc3)c2n1` here?
The AC50 was 18.1 µM (active).

With `Cc1cccc2nc(CSc3nc4nncc-4c(O)n3-c3cccc(Cl)c3)cc(=O)n12` as the compound, how does the AC50 [10] read?
Its AC50 is 8.23 µM (active).

Which EC50 [4] does the source give for `CN(CC(=O)Nc1ccccc1Cl)CC(=O)Nc1c(F)cccc1F` here?
The EC50 was > 260 µM (inactive).

For `O=C(NCC1COc2ccccc2O1)c1cccc(S(=O)(=O)NCc2ccccc2)c1` (stereo not drawn), which AC50 [10] is on record?
Its AC50 is 8.07 µM (active).

Which EC50 [4] does the source give for `NC(=O)c1cc2cc(Br)ccc2o/c1=N\Cc1ccccc1` here?
Its EC50 is > 260 µM (inactive).

Which AC50 [11] does the source give for `C[C@H](CO)N1C[C@H](C)[C@@H](CN(C)C(=O)NC2CCCCC2)Oc2c(cccc2N(C)C)C1=O` here?
Its AC50 is 36.3 µM (active).

And the AC50 [12]?
Its AC50 is 0.558 µM (active).

For `COc1ccc(S(=O)(=O)Nc2ccc3c(c2)C(=O)N([C@H](C)CO)C[C@H](C)[C@@H](CN(C)Cc2ccc(C(F)(F)F)cc2)OCCCC[C@H](C)O3)cc1`, which AC50 [13] is on record?
Its AC50 is 18.9 µM (active).

Which results are given for `CN1C(=O)c2cc(NC(=O)c3cscn3)ccc2OC[C@@H]2O[C@H](CC(=O)NCc3ccc(Cl)c(Cl)c3)CC[C@H]21`?
AC50 [14]: 21 µM (active); AC50 [11]: 6.62 µM (active); AC50 [12]: 40.6 µM (active)

Which results are given for `C[C@H]1CN([C@@H](C)CO)C(=O)Cc2cc(NC(=O)Nc3cccc4ccccc34)ccc2O[C@H]1CN(C)S(=O)(=O)c1ccc(F)cc1`?
AC50 [14]: 3.46 µM (active); AC50 [11]: 7.77 µM (active); AC50 [12]: 6.07 µM (active)

Which AC50 [8] does the source give for `CC1(C)CC2CC(C)(CN2/C=N/c2sc3c(c2C#N)CC(C)(C)NC3(C)C)C1` (stereo not drawn) here?
Its AC50 is 1.04 µM (active).

With `CN(C)c1ccc(/C=N/Nc2nncc3ccccc23)cc1` as the compound, how does the EC50 [2] read?
The EC50 was 1.11 µM (active).

What about the EC50 [3] of the same compound?
The EC50 was 2.37 µM (active).

For `CCO/C(O)=C1\C(C)=Nc2ncnn2C1c1ccc2c(c1)OCO2` (stereo not drawn), which EC50 [4] is on record?
Its EC50 is > 260 µM (inactive).

What does the source list for `CCCCc1ccc(/C(C)=N/Nc2cc(N3CCOCC3)nc(C)n2)cc1`?
EC50 [15]: 2.06 µM (active); AC50 [8]: 3.08 µM (active); EC50 [16]: > 60 µM (not active)

With `CNc1c2c(nn1C)CCCC2` [TETRYDAMINE] as the compound, how does the EC50 [6] read?
Its EC50 is > 350 µM (not active).

And the AC50 [17]?
Its AC50 is 39.8 µM (inconclusive).

What about the EC50 [7] of the same compound?
The EC50 was > 350 µM (not active).
